Data set [1] has as its system classical complement pathway. Put plainly: In vitro haemolysis assay (inhibition of classical complement pathway). It counts as cell-based, human. The settings on record: Table 3; human serum, sensitized sheep red blood cells; read-out: IC50[nM], in vitro analysis of inhibition of hemolysis. The procedure, abridged:
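Serially diluted compound (9 points) was preincubated 15 min at room temperature with diluted human serum, titrated per batch to give 70-90% maximal haemolysis, in Tris/casein buffer pH 7.4 with Mg2+/Ca2+. Antibody-sensitized sheep erythrocytes were then added for 30 min at 37° C, and the reaction was stopped with EDTA. Haemolysis was read at A405, with IC50 from 4PL fit.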

A short description of data set [2]: Solubility test at 10 mg/mL (visual inspection and light scattering). It counts as physicochemical. The settings on record: for Solubility, Condition 1 Acetate pH 4: 10 mg/mL compound in 100 mM acetate pH 4; for Solubility, Condition 2 Acetate pH 5: 10 mg/mL compound in 100 mM acetate pH 5; for Solubility, Condition 3 Phosphate pH 6: 10 mg/mL compound in 100 mM phosphate pH 6; for Solubility, Condition 4 Phosphate pH 7: 10 mg/mL compound in 100 mM phosphate pH 7; for Solubility, Condition 5 Phosphate pH 7.5: 10 mg/mL compound in 100 mM phosphate pH 7.5.

From US20220306695A1, “COMPSTATIN ANALOGUES AND THEIR MEDICAL USES” (priority 2019, published 2022) come the findings set out here.

Positions of bridges follow the written chain, without caps; N, C: chain ends. Non-standard residues stand in square brackets, D forms with d. Residues, ends and D or L forms follow the SMILES beside them. Trp(1-Me) = Cn1cc(C[C@H](N)C(=O)O)c2ccccc21; 2Nal = N[C@@H](Cc1ccc2ccccc2c1)C(=O)O; Sar = CNCC(=O)O

By IC50 is commonly meant the point on the concentration scale where inhibition reaches its midpoint. For the molecule `CC[C@H](C)[C@@H]1NC(=O)[C@@H](NC(=O)[C@H](Cc2ccccc2)NC(=O)[C@H](C)NC(=O)[C@H](CO)NC(=O)CNC(=O)[C@H](CCC(=O)O)NC(C)=O)CSSC[C@@H](C(=O)N[C@H](C(=O)N[C@@H](CCC(=O)O)C(N)=O)[C@@H](C)O)NC(=O)[C@H](CCCNC(=N)N)NC(=O)[C@H](Cc2c[nH]cn2)NC(=O)[C@H](CCC(=O)O)NC(=O)CNC(=O)[C@H](Cc2c[nH]c3ccccc23)NC(=O)[C@H](CC(=O)O)NC(=O)[C@H](CCC(N)=O)NC(=O)[C@H](Cc2ccc3ccccc3c2)NC1=O` [Compound 60] (Ac-EGSAFCI[2Nal]QDWGEHRCTE-NH2; disulfide 6-16), the IC50 in data set [1] is under 100 nM. Moreover, in data set [2], the “Solubility, Condition 1 Acetate pH 4” value is “− (denotes lack of solubility at the given condition, as UV absorbance at 340 nm exceeds 0.1 AU and/or it is visibly turbid or contains particles.)”; the “Solubility, Condition 2 Acetate pH 5” value is listed as “− (denotes lack of solubility at the given condition, as UV absorbance at 340 nm exceeds 0.1 AU and/or it is visibly turbid or contains particles.)”; the “Solubility, Condition 3 Phosphate pH 6” value is “+ (denotes solubility at the given condition, as determined by UV absorbance being less than 0.1 AU at 340 nm and the sample being clear when manually inspected.)”; the “Solubility, Condition 4 Phosphate pH 7” value was “+ (denotes solubility at the given condition, as determined by UV absorbance being less than 0.1 AU at 340 nm and the sample being clear when manually inspected.)”. Also, the “Solubility, Condition 5 Phosphate pH 7.5” value in data set [2] was “+ (denotes solubility at the given condition, as determined by UV absorbance being less than 0.1 AU at 340 nm and the sample being clear when manually inspected.)”.

For `CC[C@H](C)[C@H](NC(=O)[C@H](C)NC(=O)[C@H](CO)NC(=O)[C@H](CO)NC(=O)[C@H](CCC(=O)O)NC(C)=O)C(=O)N[C@H]1CSSC[C@@H](C(=O)N[C@H](C(=O)NCC(=O)N[C@@H](C)C(=O)N[C@@H](CCC(=O)O)C(=O)N[C@@H](CO)C(N)=O)[C@@H](C)O)NC(=O)[C@H](CCCNC(=N)N)NC(=O)[C@H](Cc2c[nH]cn2)NC(=O)[C@H](CCC(=O)O)NC(=O)CNC(=O)[C@H](Cc2c[nH]c3ccccc23)NC(=O)[C@H](CC(=O)O)NC(=O)[C@H](CCC(N)=O)NC(=O)[C@H](Cc2c[nH]c3ccccc23)NC(=O)[C@H]([C@@H](C)CC)NC1=O` [Compound 14] (Ac-ESSAICIWQDWGEHRCTGAES-NH2; disulfide 6-16), the 50% inhibitory concentration (IC50) in data set [1] was under 100 nM. Besides, in data set [2], the “Solubility, Condition 1 Acetate pH 4” value was “+ (denotes solubility at the given condition, as determined by UV absorbance being less than 0.1 AU at 340 nm and the sample being clear when manually inspected.)”; the “Solubility, Condition 2 Acetate pH 5” value is recorded as “− (denotes lack of solubility at the given condition, as UV absorbance at 340 nm exceeds 0.1 AU and/or it is visibly turbid or contains particles.)”; the “Solubility, Condition 3 Phosphate pH 6” value was “− (denotes lack of solubility at the given condition, as UV absorbance at 340 nm exceeds 0.1 AU and/or it is visibly turbid or contains particles.)”; the “Solubility, Condition 4 Phosphate pH 7” value is “+ (denotes solubility at the given condition, as determined by UV absorbance being less than 0.1 AU at 340 nm and the sample being clear when manually inspected.)”. Besides, in data set [2], the “Solubility, Condition 5 Phosphate pH 7.5” value was “+ (denotes solubility at the given condition, as determined by UV absorbance being less than 0.1 AU at 340 nm and the sample being clear when manually inspected.)”.

In the case of `CC[C@H](C)[C@@H]1NC(=O)[C@@H](NC(=O)[C@H](Cc2ccccc2)NC(=O)[C@H](N)Cc2ccc(O)cc2)CSSC[C@@H](C(=O)N[C@H](C(=O)NCC(=O)N[C@@H](C)C(=O)N[C@@H](CCC(=O)O)C(=O)N[C@@H](CO)C(N)=O)[C@@H](C)O)NC(=O)[C@H](CCCNC(=N)N)NC(=O)[C@H](Cc2c[nH]cn2)NC(=O)[C@H](CCC(=O)O)NC(=O)CN(C)C(=O)[C@H](Cc2c[nH]c3ccccc23)NC(=O)[C@H](CC(=O)O)NC(=O)[C@H](CCC(N)=O)NC(=O)[C@H](Cc2cn(C)c3ccccc23)NC1=O` [Compound 73, H-{d}YFC(1)I[1-Me-Trp]QDW[Sar]EHRC(1)TGAES-NH2] (H-[dY]FCI[Trp(1-Me)]QDW[Sar]EHRCTGAES-NH2; disulfide 3-13), the IC50 in data set [1] is under 100 nM. Also, in data set [2], the “Solubility, Condition 1 Acetate pH 4” value is “+ (denotes solubility at the given condition, as determined by UV absorbance being less than 0.1 AU at 340 nm and the sample being clear when manually inspected.)”; the “Solubility, Condition 2 Acetate pH 5” value was “− (denotes lack of solubility at the given condition, as UV absorbance at 340 nm exceeds 0.1 AU and/or it is visibly turbid or contains particles.)”; the “Solubility, Condition 3 Phosphate pH 6” value is reported as “− (denotes lack of solubility at the given condition, as UV absorbance at 340 nm exceeds 0.1 AU and/or it is visibly turbid or contains particles.)”; the “Solubility, Condition 4 Phosphate pH 7” value is “+ (denotes solubility at the given condition, as determined by UV absorbance being less than 0.1 AU at 340 nm and the sample being clear when manually inspected.)”. Also, the “Solubility, Condition 5 Phosphate pH 7.5” value in data set [2] was “+ (denotes solubility at the given condition, as determined by UV absorbance being less than 0.1 AU at 340 nm and the sample being clear when manually inspected.)”.

Consider `CC[C@H](C)[C@@H]1NC(=O)[C@@H](NC(=O)[C@H](Cc2ccc(O)cc2)NC(C)=O)CSSC[C@@H](C(=O)N[C@H](C(=O)N[C@@H](CCC(=O)O)C(=O)N[C@@H](C)C(=O)NCC(=O)N[C@@H](CO)C(N)=O)[C@@H](C)O)NC(=O)[C@H](CCCNC(=N)N)NC(=O)[C@H](Cc2c[nH]cn2)NC(=O)[C@H](CCC(=O)O)NC(=O)CNC(=O)[C@H](Cc2c[nH]c3ccccc23)NC(=O)[C@H](CC(=O)O)NC(=O)[C@H](CCC(N)=O)NC(=O)[C@H](Cc2cn(C)c3ccccc23)NC1=O` [Compound 68] (Ac-YCI[Trp(1-Me)]QDWGEHRCTEAGS-NH2; disulfide 2-12), for which, in data set [1], the IC50 is under 100 nM. Besides, in data set [2], the “Solubility, Condition 1 Acetate pH 4” value is on record as “− (denotes lack of solubility at the given condition, as UV absorbance at 340 nm exceeds 0.1 AU and/or it is visibly turbid or contains particles.)”; the “Solubility, Condition 2 Acetate pH 5” value is “− (denotes lack of solubility at the given condition, as UV absorbance at 340 nm exceeds 0.1 AU and/or it is visibly turbid or contains particles.)”; the “Solubility, Condition 3 Phosphate pH 6” value is “+ (denotes solubility at the given condition, as determined by UV absorbance being less than 0.1 AU at 340 nm and the sample being clear when manually inspected.)”; the “Solubility, Condition 4 Phosphate pH 7” value was “+ (denotes solubility at the given condition, as determined by UV absorbance being less than 0.1 AU at 340 nm and the sample being clear when manually inspected.)”. Moreover, the “Solubility, Condition 5 Phosphate pH 7.5” value in data set [2] was “+ (denotes solubility at the given condition, as determined by UV absorbance being less than 0.1 AU at 340 nm and the sample being clear when manually inspected.)”.

With `CC[C@H](C)[C@H](NC(C)=O)C(=O)N[C@H]1CSSC[C@@H](C(=O)N[C@H](C(=O)N[C@@H](CCC(=O)O)C(=O)N[C@@H](C)C(N)=O)[C@@H](C)O)NC(=O)[C@H](CCCNC(=N)N)NC(=O)[C@H](Cc2c[nH]cn2)NC(=O)[C@H](CCC(=O)O)NC(=O)CNC(=O)[C@H](Cc2c[nH]c3ccccc23)NC(=O)[C@H](CC(=O)O)NC(=O)[C@H](CCC(N)=O)NC(=O)[C@H](Cc2c[nH]c3ccccc23)NC(=O)[C@H]([C@@H](C)CC)NC1=O` [Compound 25] (Ac-ICIWQDWGEHRCTEA-NH2; disulfide 2-12), the IC50 in data set [1] was under 100 nM. For the same molecule, in data set [2], the “Solubility, Condition 1 Acetate pH 4” value is “+ (denotes solubility at the given condition, as determined by UV absorbance being less than 0.1 AU at 340 nm and the sample being clear when manually inspected.)”; the “Solubility, Condition 2 Acetate pH 5” value is reported as “− (denotes lack of solubility at the given condition, as UV absorbance at 340 nm exceeds 0.1 AU and/or it is visibly turbid or contains particles.)”; the “Solubility, Condition 3 Phosphate pH 6” value is recorded as “− (denotes lack of solubility at the given condition, as UV absorbance at 340 nm exceeds 0.1 AU and/or it is visibly turbid or contains particles.)”; the “Solubility, Condition 4 Phosphate pH 7” value is “+ (denotes solubility at the given condition, as determined by UV absorbance being less than 0.1 AU at 340 nm and the sample being clear when manually inspected.)”. In addition, the “Solubility, Condition 5 Phosphate pH 7.5” value in data set [2] is “+ (denotes solubility at the given condition, as determined by UV absorbance being less than 0.1 AU at 340 nm and the sample being clear when manually inspected.)”.

For `CC[C@H](C)[C@@H]1NC(=O)[C@@H](NC(=O)[C@H](Cc2ccccc2)NC(=O)[C@H](CCC(=O)O)NC(=O)[C@H](CO)NC(C)=O)CSSC[C@@H](C(=O)N(C)CC(=O)NCC(=O)N[C@@H](C)C(=O)N[C@@H](CCC(=O)O)C(=O)N[C@@H](CO)C(N)=O)NC(=O)[C@H](CCCNC(=N)N)NC(=O)[C@H](Cc2c[nH]cn2)NC(=O)[C@H](CCC(=O)O)NC(=O)CNC(=O)[C@H](Cc2c[nH]c3ccccc23)NC(=O)[C@H](CC(=O)O)NC(=O)[C@H](CCC(N)=O)NC(=O)[C@H](Cc2cn(C)c3ccccc23)NC1=O` [Compound 74] (Ac-SEFCI[Trp(1-Me)]QDWGEHRC[Sar]GAES-NH2; disulfide 4-14), the IC50 in data set [1] is under 100 nM. In addition, in data set [2], the “Solubility, Condition 1 Acetate pH 4” value is “− (denotes lack of solubility at the given condition, as UV absorbance at 340 nm exceeds 0.1 AU and/or it is visibly turbid or contains particles.)”; the “Solubility, Condition 2 Acetate pH 5” value is “+ (denotes solubility at the given condition, as determined by UV absorbance being less than 0.1 AU at 340 nm and the sample being clear when manually inspected.)”; the “Solubility, Condition 3 Phosphate pH 6” value is “+ (denotes solubility at the given condition, as determined by UV absorbance being less than 0.1 AU at 340 nm and the sample being clear when manually inspected.)”; the “Solubility, Condition 4 Phosphate pH 7” value was “+ (denotes solubility at the given condition, as determined by UV absorbance being less than 0.1 AU at 340 nm and the sample being clear when manually inspected.)”. Moreover, the “Solubility, Condition 5 Phosphate pH 7.5” value in data set [2] is “+ (denotes solubility at the given condition, as determined by UV absorbance being less than 0.1 AU at 340 nm and the sample being clear when manually inspected.)”.
